From patent US20230012368A1 (Hoffmann-La Roche Inc., priority 2018, published 2023) come the findings set out here.

Molecules are shown by their SMILES. Structures can show the parent of a compound that is named as a salt.

The experiment concerns Acinetobacter baumannii ATCC 17978. Description: Antimicrobial susceptibility testing: 90% growth inhibitory concentration (IC90) determination. Particulars: Acinetobacter baumannii, ATCC17978, 16 h, 90% growth inhibitory concentration; Acinetobacter baumannii ATCC17978; Iso-Sensitest broth, OD 600 nm over 16h; read-out: ATCC17978 IC90. The experiment is classed as cell-based. In a few lines:
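Compounds serially twofold diluted (e.g. 50 to 0.097 μM final) in Iso-Sensitest broth, inoculated at ~5×10^(5) CFU/ml, incubated at 35±2° C. OD600 read every 20 minutes over 16h. IC90 taken as concentration inhibiting 90% of growth during logarithmic phase.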
Consider `Cc1cc(Nc2nccn3c(-c4ccc(OC(F)F)cc4)cnc23)ccc1C(=O)N(C)CC(=O)N(C)CC(=O)N1CCN(C)CC1` [Example 171, 4-[[3-[4-(difluoromethoxy)phenyl]im-idazo[1,2-a]pyrazin-8-yl]amino]-N,2-dimethyl-N-[2-[methyl-[2-(4-methylpiperazin-1-yl)-2-oxoethyl]amino]-2-oxoethyl]benzamide], for which the 90% effect concentration (IC90) turned out to be 3.6 µM.

Turning to `COc1ccc(-c2cnc3c(Nc4ccc(C(=O)N(CCN5CCNCC5)CC(F)(F)F)c(C)c4)nccn23)cc1F` [Example 172, 4-[[3-(3-fluoro-4-methoxyphenyl)imidazo[1,2-a]pyrazin-8-yl]amino]-2-methyl-N-(2-piperazin-1-ylethyl)-N-(2,2,2-trifluoroethyl)benzamide; hy-drochloride], the IC90 stood at 6.2 µM.

As for `COc1ccc(-c2cnc3c(Nc4ccc(C(=O)N(C)CC(=O)N5CCNC(C(=O)O)C5)c(C)c4)nccn23)cc1F` (centres unmarked) [Example 173, 4-[2-[[4-[[3-(3-fluoro-4-methoxyphenyl)imidazo[1,2-a]pyrazin-8-yl]amino]-2-methylbenzoyl]-methylamino]acetyl]piperazine-2-carboxylic acid;hydrochloride], the 90% effect concentration (IC90) stood at 8.6 µM.

For the molecule `COc1ccc(-c2cnc3c(Nc4ccc(C(=O)N(C)CCCC(=O)O)c(C)c4)nccn23)cc1F` [Example 174, 4-[[4-[[3-(3-fluoro-4-methoxyphenyl)imidazo[1,2-a]pyrazin-8-yl]amino]-2-methylbenzoyl]-methylamino]butanoic acid], the IC90 stood at 8.9 µM.

For `COc1ccc(-c2cnc3c(Nc4ccc(C(=O)N(CCN5CCNCC5)CC(F)F)c(C)c4)nccn23)cc1F` [Example 175, N-(2,2-difluoroethyl)-4-[[3-(3-fluoro-4-methoxyphenyl)imidazo[1,2-a]pyrazin-8-yl]amino]-2-methyl-N-(2-piperazin-1-ylethyl)benzamide;hydrochlo-ride], the 90% effect concentration (IC90) was 2.3 µM.

Regarding `Cc1cc(Nc2nccn3c(-c4ccc(OC(F)F)cc4)cnc23)ccc1C(=O)NCCSc1nnnn1C` [Example 176, 4-[[3-[4-(difluoromethoxy)phenyl]im-idazo[1,2-a]pyrazin-8-yl]amino]-2-methyl-N-[2-(1-methyltetrazol-5-yl)sulfanylethyl]benzamide], the 90% effect concentration (IC90) is 0.52 µM.

Consider `Cc1cc(Nc2nccn3c(-c4ccc(OC(F)F)cc4)cnc23)ccc1C(=O)N(C)CCCSc1nnnn1CCN(C)C` [Example 177, 4-[[3-[4-(difluoromethoxy)phenyl]im-idazo[1,2-a]pyrazin-8-yl]amino]-N-[3-[1-[2-(dimethylamino)ethyl]tetrazol-5-yl]sulfanylpropyl]-N,2-dimethylbenzamide;2,2,2-trifluoroacetic acid], for which the IC90 came to 0.9 µM.

For `Cc1cc(Nc2nccn3c(-c4ccc(OC(F)F)cc4)cnc23)ccc1C(=O)N(C)CCCSc1nnnn1C` [Example 178, 4-[[3-[4-(difluoromethoxy)phenyl]im-dazo[1,2-a]pyrazin-8-yl]amino]-N,2-dimethyl-N-[3-(1-methyltetrazol-5-yl)sulfanylpropyl]benzamide], the IC90 worked out at 1 µM.

On to `COc1ccc(-c2cnc3c(Nc4ccc5c(c4)CCNC5=O)nccn23)c(Cl)c1` [Example 179, 6-[[3-(2-chloro-4-methoxyphenyl)imidazo[1,2-a]pyrazin-8-yl]amino]-3,4-dihydro-2H-isoquinolin-1-one], for which the IC90 came to 1.7 µM.

On to `COc1ccc(-c2cnc3c(Nc4ccc(C(=O)N(C)C)cc4)nccn23)cc1Cl` [Example 180, 4-[[3-(3-chloro-4-methoxyphenyl)imidazo[1,2-a]pyrazin-8-yl]amino]-N,N-dimethylbenzamide;2,2,2-trifluoroacetic acid], for which the IC90 turned out to be 0.73 µM.

On to `CNC(=O)c1ccc(Nc2nccn3c(-c4ccc(OC)c(Cl)c4)cnc23)cc1` [Example 181, 4-[[3-(3-chloro-4-methoxyphenyl)imidazo[1,2-a]pyrazin-8-yl]amino]-N-methylbenzamide;2,2,2-trifluoroacetic acid], for which the 90% effect concentration (IC90) amounted to 1.3 µM.

The term IC90 denotes the point of the concentration-response curve where the effect stands at 90%.
